Like-named read-outs stand apart in the source and are kept apart here.
How the values were obtained:
[1] = system: A2780; assay: Inhibition of cell growth, A2780 wild type ovarian carcinoma cell line
[2] = system: 2780AD; assay: Inhibition of cell growth, adriamycin (doxorubicin) resistant 2780AD cell line; format: cell-based, human; details: for IC50: read-out: Inhibition of cell growth 2780AD nM (IC50); for RF 2780AD (IC50 in resistant cell line/IC50 in parent cell line): 2780AD vs A2780
[3] = system: A2780/cp70; assay: Inhibition of cell growth, cisplatin resistant A2780/cp70 cell line; format: cell-based, human; details: for RF A2780/cp70 (IC50 in resistant cell line/IC50 in parent cell line): A2780/cp70 vs A2780
[4] = system: human ovarian tumour xenograft (A2780); assay: Tumour doubling time, human ovarian tumour xenograft A2780 in mice; format: in vivo; details: 20 mg/kg i.p.
Text: (§1) Compound HAQ71, with the lowest RF (0.2) of the panel of compounds tested against the cisplatin resistant cells and its chloropropyl-substituted analogue, was selected for in vivo investigation in mice using tumour A2780 and A2780/cp70 cells grown as xenografts in mice. Significant anticancer activity in vivo of HAQ71 and CAQ75 was shown; both compounds exerting similar tumour growth delay in human xenografted wild-type and acquired cisplatin resistant tumours (A2780/cp70). The latter is very refractory to cisplatin and other covalent binding agents and has been characterised with elevated levels of glutathione, alterations in drug uptake/efflux and DNA repair mechanisms including mismatch repair deficiency.

[5] = system: cisplatin resistant variant (A2780/cp70) xenograft; assay: Tumour doubling time, cisplatin resistant variant xenograft A2780/cp70 in mice; format: in vivo; details: 20 mg/kg i.p.
Text: as §1

[6] = read-out: Inhibition of cell growth (IC50, nM) A2780, A2780, Table 1
[7] = A2780/cp70 cisplatin resistant, read-out: Inhibition of cell growth A2780/cp70 nM (IC50)
[8] = Homo sapiens, A2780/CP70, read-out: Inhibition of cell growth A2780/cp70 nM (IC50)
[9] = Homo sapiens, A2780, read-out: Inhibition of cell growth A2780 nM (IC50)
[10] = read-out: Growth Inhibition (IC50) A2780, A2780, Table 4

## O=C1c2c(O)ccc(O)c2C(=O)c2c(NCCN3CCCC3CO)ccc(NCCN3CCCC3CO)c21 (stereo not drawn) [HAQ125, 1,4-Bis-{[2-(2-hydroxymethylpyrrolidin-1-yl)ethyl]amino}-5,8-dihydroxy-anthracene-9,10-dione]
other
  melting point: 202 to 204 °C

## CN(C)CCNc1ccc(NCCN2CCC(O)CC2)c2c1C(=O)c1c(O)ccc(O)c1C2=O [HAQ111, 1-{[(2-Dimethylamino)ethyl]amino}-4-{[2-(4-hydroxypiperidin-1-yl)ethyl]amino}-5,8-dihydroxy-anthracene-9,10-dione]
[1]; [6]
  IC50: 6.1 nM

## CN(C)CCNc1ccc(NCCN2CCCCC2CCl)c2c1C(=O)c1c(O)ccc(O)c1C2=O (stereo not drawn) [CAQ183M, 1-{[2-(2-Chloromethylpiperidin-1-yl)ethyl]-amino}-4-{[(2-dimethylamino)ethyl]amino}-5,8-dihydroxyanthracene-9,10-dione]
[2]; 2780AD adriamycin resistant
  IC50: 91 nM
[2]
  RF 2780AD (IC50 in resistant cell line/IC50 in parent cell line): 2.3
[3]; [7]
  IC50: 69 nM
[3]
  RF A2780/cp70 (IC50 in resistant cell line/IC50 in parent cell line): 1.7

## O=C1c2ccccc2C(=O)c2c(NCCN3CCCC3CO)cccc21 (stereo not drawn) [HAQ163, 1-{[2-(2-Hydroxymethylpyrrolidin-1-yl)ethyl]amino}-anthracene-9,10-dione]
[2]; Homo sapiens, 2780AD adriamycin resistant
  IC50: > 1000 nM
[3]; Homo sapiens, A2780/cp70 cisplatin resistant, read-out: Inhibition of cell growth A2780/cp70 nM (IC50)
  IC50: > 1000 nM
other
  melting point: 113 to 115 °C
[1]; read-out: Inhibition of cell growth A2780 nM (IC50)
  IC50: > 1000 nM

## O=C1c2c(O)ccc(O)c2C(=O)c2c(NCCN3CCCCC3)ccc(NCCN3CCCCC3)c21 [HAQ145, 1,4-Bis-{[2-(piperidin-1-yl)ethyl]amino}-5,8-dihydroxy-anthracene-9,10-dione]
other
  melting point: 219 to 221 °C

## CN(C)CCNc1ccc(NCCN2CCCC(CO)C2)c2c1C(=O)c1c(O)ccc(O)c1C2=O (stereo not drawn) [HAQ71, 1-[(2-Dimethylamino)ethylamino]-4-[2-(3-hydroxymethyl-piperidin-1-yl)ethylamino]-5,8-dihydroxy-anthracene-9,10-dione]
[3]; text b280, b283
  RF against the cisplatin resistant cells: 0.2
[4]
  doubling time (days) of tumour xenograft: 5.23 ± 0.39 days
  tumour doubling time, percent: 177%
[5]
  doubling time (days) of tumour xenograft: 4.33 ± 0.16 days
  tumour growth delay (%): 172%
[1]; [6]
  IC50: 8.4 nM

## O=C1c2c(O)ccc(O)c2C(=O)c2c(NCCN3CCCCC3CCl)ccc(NCCN3CCCCC3CCl)c21 (stereo not drawn) [CAQ190M, 1,4-Bis-{[2-(2-chloromethylpiperidin-1-yl)ethyl]amino}-5,8-dihydroxyanthracene-9,10-dione]
[2]; Homo sapiens, 2780AD
  IC50: > 1000 nM
[3]; [8]
  IC50: > 1000 nM
[1]; [9]
  IC50: 178 nM

## O=C1c2c(O)ccc(O)c2C(=O)c2c(NCCN3CCCC3CCl)ccc(NCCN3CCCC3CCl)c21 (stereo not drawn) [CAQ177M, 1,4-Bis-{[2-(2-chloromethylpyrrolidin-1-yl)ethyl]amino}-5,8-dihydroxyanthracene-9,10-dione]
[2]
  RF 2780AD (IC50 in resistant cell line/IC50 in parent cell line): 1.8
[2]; Homo sapiens, 2780AD
  IC50: 782 nM
[3]
  RF A2780/cp70 (IC50 in resistant cell line/IC50 in parent cell line): 1
[3]; [8]
  IC50: 442 nM
[1]; [9]
  IC50: 428 nM

## CN(C)CCNc1ccc(NCCN2CCCCC2)c2c1C(=O)c1c(O)ccc(O)c1C2=O [HAQ148, 1-{[(2-Dimethylamino)ethyl]amino}-4-{[2-(piperidin-1-yl)ethyl]amino}-5,8-dihydroxyanthracene-9,10-dione, reference compound]
[2]; 2780AD adriamycin resistant
  IC50: > 1000 nM
[3]; [7]
  IC50: > 1000 nM
[1]; [6]
  IC50: > 1000 nM
[1]; read-out: Inhibition of cell growth A2780 nM (IC50), A2780 wild type, Table 2
  IC50: > 1000 nM

## O=C1c2c(O)ccc(O)c2C(=O)c2c(NCCN3CCCC(CCl)C3)ccc(NCCN3CCCC(CCl)C3)c21 (stereo not drawn) [CAQ74, 1,4-Bis-{[2-(3-chloromethylpiperidin-1-yl)ethyl]amino}-5,8-dihydroxyanthracene-9,10-dione]
[2]; Homo sapiens, 2780AD
  IC50: > 1000 nM
[3]; [8]
  IC50: > 1000 nM
[1]; [9]
  IC50: > 1000 nM

## C[N+](C)([O-])CCNc1ccc(NCC[N+]2([O-])CCCC2CO)c2c1C(=O)c1c(O)ccc(O)c1C2=O (stereo not drawn) [HAQ132N, 1-{[2-(2-Hydroxymethylpyrrolidin-1-yl-N-oxide)ethyl]amino}-4-{[(2-dimethylamino-N-oxide)ethyl]amino}-5,8-dihydroxy-anthracene-9,10-dione]
[1]; [10]
  IC50: > 100000 nM
[1]; read-out: IC50 of di-N-oxides (order of cytotoxicity), text b286
  IC50: > 100000 nM
[1]; text b286
  cytotoxicity ratio (CR=IC50 of alkylaminoanthraquinone-di-N-oxide/IC50 alkylaminoanthraquinone): 1,450

## CN(C)CCNc1ccc(NCCN2C(CCl)CCCC2CCl)c2c1C(=O)c1c(O)ccc(O)c1C2=O (stereo not drawn) [CAQ187M, 1-{[2-(2,6-Dichloromethylpiperidin-1-yl)ethyl]-amino}-4-{[(2-dimethylamino)ethyl]amino}-5,8-dihydroxyanthracene-9,10-dione]
[2]; 2780AD adriamycin resistant
  IC50: 106 nM
[2]
  RF 2780AD (IC50 in resistant cell line/IC50 in parent cell line): 4.4
[3]; [7]
  IC50: 357 nM
[3]
  RF A2780/cp70 (IC50 in resistant cell line/IC50 in parent cell line): 14.9

## O=C1c2c(O)ccc(O)c2C(=O)c2c(NCCN3CCC(O)C3)ccc(NCCN3CCC(O)C3)c21 (stereo not drawn) [HAQ115, 1,4-Bis-{[2-(3-hydroxypyrrolidin-1-yl)ethyl]amino}-5,8-dihydroxy-anthracene-9,10-dione]
other
  melting point: 197 to 199 °C

## O=C1c2c(O)ccc(O)c2C(=O)c2c(NCCN3CCC(O)CC3)ccc(NCCN3CCC(O)CC3)c21 [HAQ116, 1,4-Bis-{[2-(4-hydroxypiperidin-1-yl)ethyl]amino}-5,8-dihydroxy-anthracene-9,10-dione]
other
  melting point: 241 to 244 °C

## CN(C)CCNc1ccc(NCCN2CCCC(Cl)C2)c2c1C(=O)c1c(O)ccc(O)c1C2=O (stereo not drawn) [CAQ166M, 1-{[2-(3-Chloropiperidin-1-yl)ethyl]amino}-4-{[(2-dimethylamino)ethyl]amino}-5,8-dihydroxyanthracene-9,10-dione]
[2]; 2780AD adriamycin resistant
  IC50: 75 nM
[2]
  RF 2780AD (IC50 in resistant cell line/IC50 in parent cell line): 8.3
[3]; [7]
  IC50: 63 nM
[3]
  RF A2780/cp70 (IC50 in resistant cell line/IC50 in parent cell line): 7

## O=C1c2c(O)ccc(O)c2C(=O)c2c(NCCN3CCCC(CO)C3)ccc(NCCN3CCCC(CO)C3)c21 (stereo not drawn) [HAQ70, 1,4-Bis-{[2-(3-hydroxymethylpiperidine-1-yl)ethyl]amino}-5,8-dihydroxyanthracene-9,10-dione]
other
  melting point: 180 to 183 °C

## O=C1c2c(O)ccc(O)c2C(=O)c2c(NCCN3CCCCC3CO)ccc(NCCN3CCCCC3CO)c21 (stereo not drawn) [HAQ105, 1,4-Bis-{[2-(2-hydroxymethylpiperidine-1-yl)ethyl]amino}-5,8-dihydroxy-anthracene-9,10-dione]
other
  melting point: 208 to 210 °C

## O=C1c2ccccc2C(=O)c2c(NCCN3CCCC(CO)C3)ccc(NCCN3CCCC(CO)C3)c21 (stereo not drawn) [HAQ38, 1,4-Bis-{[2-(3-hydroxymethylpiperidine-1-yl)ethyl]amino}-anthracene-9,10-dione]
other
  melting point: 112 to 114 °C

## CN(C)CCNc1ccc(NCCN2CCC(Cl)C2)c2c1C(=O)c1c(O)ccc(O)c1C2=O (stereo not drawn) [CAQ188M, 1-{[2-(3-Chloropyrrolidin-1-yl)ethyl]amino}-4-{[(2-dimethylamino)ethyl]amino}-5,8-dihydroxyanthracene-9,10-dione]
[2]; 2780AD adriamycin resistant
  IC50: 342 nM
[2]
  RF 2780AD (IC50 in resistant cell line/IC50 in parent cell line): 5.0
[3]; [7]
  IC50: 96 nM
[3]
  RF A2780/cp70 (IC50 in resistant cell line/IC50 in parent cell line): 1.4

## CN(C)CCNc1ccc(NCCN2CCCC2CO)c2c1C(=O)c1c(O)ccc(O)c1C2=O (stereo not drawn) [HAQ110, 1-{[(2-Dimethylamino)ethyl]amino}-4-{[2-(2-hydroxymethylpyrrolidin-1-yl)ethyl]-amino}-5,8-dihydroxy-anthracene-9,10-dione]
[1]; [10]
  IC50: 69 nM

## CN(C)CCNc1ccc(NCCN2CCCC(O)C2)c2c1C(=O)c1c(O)ccc(O)c1C2=O (stereo not drawn) [HAQ73, 1-[(2-Dimethylamino)ethylamino]-4-[2-(3-hydroxypiperidon-1-yl)ethylamino]-5,8-dihydroxy-anthracene-9,10-dione]
[1]; [6]
  IC50: 10.8 nM

## CN(C)CCNc1ccc(NCCN2CCCC2CCl)c2c1C(=O)c1c(O)ccc(O)c1C2=O (stereo not drawn) [CAQ176M, 1-{[2-(2-Chloromethylpyrrolidin-1-yl)ethyl]-amino}-4-{[(2-Dimethylamino)ethyl]amino}-5,8-dihydroxyanthracene-9,10-dione]
[2]; 2780AD adriamycin resistant
  IC50: 292 nM
[2]
  RF 2780AD (IC50 in resistant cell line/IC50 in parent cell line): 10.1
[3]; [7]
  IC50: 79 nM
[3]
  RF A2780/cp70 (IC50 in resistant cell line/IC50 in parent cell line): 2.7

## O=C1c2ccccc2C(=O)c2c(NCCN3CCCC3CCl)cccc21 (stereo not drawn) [CAQ191M, 1-{[2-(2-chloromethylpyrrolidin-1-yl)ethyl]amino}-anthracene-9,10-dione]
[2]; Homo sapiens, 2780AD
  IC50: > 1000 nM
[3]; [8]
  IC50: > 1000 nM
other
  melting point: 250 to 253 °C
[1]; [9]
  IC50: > 1000 nM

## CN(C)CCNc1ccc(NCCN2CCC(Cl)CC2)c2c1C(=O)c1c(O)ccc(O)c1C2=O [CAQ172, 1-{[2-(4-Chloropiperidin-1-yl)ethyl]amino}-4-{[(2-dimethylamino)ethyl]amino}-5,8-dihydroxyanthracene-9,10-dione]
[2]; 2780AD adriamycin resistant
  IC50: 426 nM
[2]
  RF 2780AD (IC50 in resistant cell line/IC50 in parent cell line): 0.7
[3]; [7]
  IC50: 535 nM
[3]
  RF A2780/cp70 (IC50 in resistant cell line/IC50 in parent cell line): 0.9
